{
  "source": "patent US4605744A",
  "about": "“Imidazole derivatives” (Hoffmann-La Roche Inc., priority 1985, dated 1986)",
  "experiment_in_all_cases": "In vitro antibacterial activity (MIC)",
  "format_in_all_cases": "cell-based",
  "key": {"C. diversus CDC 1663-72": {"tested_on": "C. diversus CDC 1663-72", "conditions": "Citrobacter koseri, CDC166372; C. diversus CDC 1663-72; read-out: MIC", "method_in_brief": "(§1)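 Twofold-style dilution series (128 to 0.008 μg/ml) made in Mueller-Hinton broth, dispensed, then inoculated with 1.5 μl of a 10^-2 overnight-culture dilution. Plates sealed, held overnight at 37° C, inspected with a viewer.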"}, "C. freundii CDC6": {"tested_on": "C. freundii CDC6", "conditions": "Citrobacter freundii, CDC6, C. freundii CDC6; read-out: MIC", "method_in_brief": "as §1"}, "E. aerogenes 83": {"tested_on": "E. aerogenes 83", "conditions": "Klebsiella aerogenes, 83, E. aerogenes 83; read-out: MIC", "method_in_brief": "as §1"}, "E. cloacae 9295": {"tested_on": "E. cloacae 9295", "conditions": "Enterobacter cloacae, 9295, E. cloacae 9295; read-out: MIC", "method_in_brief": "as §1"}, "E. cloacae P99": {"tested_on": "E. cloacae P99", "conditions": "Enterobacter cloacae, P99, E. cloacae P99", "method_in_brief": "as §1"}, "E. coli 387-1": {"tested_on": "E. coli 387-1", "conditions": "Escherichia coli, 3871, E. coli 387-1; read-out: MIC", "method_in_brief": "as §1"}, "E. coli 48": {"tested_on": "E. coli 48", "conditions": "Escherichia coli, 48", "method_in_brief": "as §1"}, "E. coli 4": {"tested_on": "E. coli 4", "conditions": "Escherichia coli, 4, E. coli 4; read-out: MIC", "method_in_brief": "as §1"}, "E. coli 5152": {"tested_on": "E. coli 5152", "conditions": "Escherichia coli, 5152", "method_in_brief": "as §1"}, "E. coli R-563": {"tested_on": "E. coli R-563", "conditions": "Escherichia coli, R563, E. coli R-563; read-out: MIC", "method_in_brief": "as §1"}, "K. pneumoniae 35": {"tested_on": "K. pneumoniae 35", "conditions": "Klebsiella pneumoniae; K. pneumoniae 35; read-out: MIC", "method_in_brief": "as §1"}, "K. pneumoniae 4964": {"tested_on": "K. pneumoniae 4964", "conditions": "Klebsiella pneumoniae, 4964, K. pneumoniae 4964; read-out: MIC", "method_in_brief": "as §1"}, "K. pneumoniae 503-964": {"tested_on": "K. pneumoniae 503-964", "conditions": "Klebsiella pneumoniae, 503964; K. pneumoniae 503-964; read-out: MIC", "method_in_brief": "as §1"}, "K. pneumoniae 503-994": {"tested_on": "K. pneumoniae 503-994", "conditions": "Klebsiella pneumoniae, 503994, K. pneumoniae 503-994; read-out: MIC", "method_in_brief": "as §1"}, "K. pneumoniae 5096": {"tested_on": "K. pneumoniae 5096", "conditions": "Klebsiella pneumoniae; K. pneumoniae 5096; read-out: MIC", "method_in_brief": "as §1"}, "K. pneumoniae A": {"tested_on": "K. pneumoniae A", "conditions": "Klebsiella pneumoniae, K. pneumoniae A; read-out: MIC", "method_in_brief": "as §1"}, "K. pneumoniae HE7": {"tested_on": "K. pneumoniae HE7", "conditions": "Klebsiella pneumoniae; K. pneumoniae HE7; read-out: MIC", "method_in_brief": "as §1"}, "P. aeruginosa 503-56": {"tested_on": "P. aeruginosa 503-56", "conditions": "Pseudomonas aeruginosa, 50356, P. aeruginosa 503-56; read-out: MIC", "method_in_brief": "as §1"}, "P. aeruginosa 503-820": {"tested_on": "P. aeruginosa 503-820", "conditions": "Pseudomonas aeruginosa, 503820; P. aeruginosa 503-820; read-out: MIC", "method_in_brief": "as §1"}, "P. aeruginosa 5712": {"tested_on": "P. aeruginosa 5712", "conditions": "Pseudomonas aeruginosa; P. aeruginosa 5712; read-out: MIC", "method_in_brief": "as §1"}, "P. aeruginosa 6148B": {"tested_on": "P. aeruginosa 6148B", "conditions": "Pseudomonas aeruginosa, read-out: MIC", "method_in_brief": "as §1"}, "P. aeruginosa 8710": {"tested_on": "P. aeruginosa 8710", "conditions": "Pseudomonas aeruginosa; P. aeruginosa 8710; read-out: MIC", "method_in_brief": "as §1"}, "P. aeruginosa 8780": {"tested_on": "P. aeruginosa 8780", "conditions": "Pseudomonas aeruginosa; P. aeruginosa 8780; read-out: MIC", "method_in_brief": "as §1"}, "P. aeruginosa Stone 130": {"tested_on": "P. aeruginosa Stone 130", "conditions": "Pseudomonas aeruginosa, STONE130, read-out: MIC", "method_in_brief": "as §1"}, "P. mirabilis 2": {"tested_on": "P. mirabilis 2", "conditions": "Proteus mirabilis, 2, P. mirabilis 2; read-out: MIC", "method_in_brief": "as §1"}, "P. mirabilis 503-1136": {"tested_on": "P. mirabilis 503-1136", "conditions": "Proteus mirabilis, 5031136, P. mirabilis 503-1136; read-out: MIC", "method_in_brief": "as §1"}, "P. mirabilis 620A": {"tested_on": "P. mirabilis 620A", "conditions": "Proteus mirabilis, 620A, P. mirabilis 620A; read-out: MIC", "method_in_brief": "as §1"}, "P. rettgeri ATCC 9250": {"tested_on": "P. rettgeri ATCC 9250", "conditions": "Providencia rettgeri, ATCC9250, P. rettgeri ATCC 9250; read-out: MIC", "method_in_brief": "as §1"}, "P. vulgaris 100": {"tested_on": "P. vulgaris 100", "conditions": "Proteus vulgaris; P. vulgaris 100; read-out: MIC", "method_in_brief": "as §1"}, "P. vulgaris 101": {"tested_on": "P. vulgaris 101", "conditions": "Proteus vulgaris, 101, P. vulgaris 101; read-out: MIC", "method_in_brief": "as §1"}, "P. vulgaris ATCC 6380": {"tested_on": "P. vulgaris ATCC 6380", "conditions": "Proteus vulgaris, ATCC6380, P. vulgaris ATCC 6380; read-out: MIC", "method_in_brief": "as §1"}, "S. aureus Smith": {"tested_on": "S. aureus Smith", "conditions": "Staphylococcus aureus, S. aureus Smith; read-out: MIC", "method_in_brief": "as §1"}, "S. marcescens 5805": {"tested_on": "S. marcescens 5805", "conditions": "Serratia marcescens, 5805, S. marcescens 5805; read-out: MIC", "method_in_brief": "as §1"}, "S. marcescens S147": {"tested_on": "S. marcescens S147", "conditions": "Serratia marcescens; S. marcescens S147; read-out: MIC", "method_in_brief": "as §1"}, "S. marcescens S1": {"tested_on": "S. marcescens S1", "conditions": "Serratia marcescens, S1, S. marcescens S1; read-out: MIC", "method_in_brief": "as §1"}, "S. marcescens S4": {"tested_on": "S. marcescens S4", "conditions": "Serratia marcescens, S4, S. marcescens S4; read-out: MIC", "method_in_brief": "as §1"}, "S. marcescens S714": {"tested_on": "S. marcescens S714", "conditions": "Serratia marcescens, S714, S. marcescens S714; read-out: MIC", "method_in_brief": "as §1"}, "S. marcescens SM": {"tested_on": "S. marcescens SM", "conditions": "Serratia marcescens, read-out: MIC", "method_in_brief": "as §1"}, "S. pneumoniae 6302": {"tested_on": "S. pneumoniae 6302", "conditions": "Streptococcus pneumoniae, 6302, S. pneumoniae 6302; read-out: MIC", "method_in_brief": "as §1"}, "S. pneumoniae SC": {"tested_on": "S. pneumoniae SC", "conditions": "Streptococcus pneumoniae, read-out: MIC", "method_in_brief": "as §1"}, "S. pyogenes 4": {"tested_on": "S. pyogenes 4", "conditions": "Streptococcus pyogenes, 4, S. pyogenes 4; read-out: MIC", "method_in_brief": "as §1"}, "S. pyogenes 503-782": {"tested_on": "S. pyogenes 503-782", "conditions": "Streptococcus pyogenes, 503782; S. pyogenes 503-782; read-out: MIC", "method_in_brief": "as §1"}, "S. schottmuelleri": {"tested_on": "S. schottmuelleri", "conditions": "read-out: MIC", "method_in_brief": "as §1"}, "S. typhi P58A": {"tested_on": "S. typhi P58A", "conditions": "Salmonella enterica, TYPHI", "method_in_brief": "as §1"}},
  "note": "Structures can show the parent of a compound that is named as a salt.",
  "data": [
    {"molecule": "CC1(C)S[C@@H]2[C@H](N=CN3CCC(CCCn4ccnc4[N+](=O)[O-])CC3)C(=O)N2[C@H]1C(=O)O", "note": "[K, [2S-(2alpha,5alpha,6beta)]-6-[[[4-[3-(2-nitro-1H-imidazol-1-yl)propyl]piperidinyl]methylene]amino]-3,3-dimethyl-7-oxo-4-thia-1-azabicyclo[3.2.0]heptane-2-carboxylic acid hydrochloride 0.66 molar hydrate]", "values": [
      {"measurement": "MIC", "setting": "C. diversus CDC 1663-72", "value": 0.25, "unit": "µg/mL"},
      {"measurement": "MIC", "setting": "C. freundii CDC6", "value": 0.5, "unit": "µg/mL"},
      {"measurement": "MIC", "setting": "E. aerogenes 83", "value": 8, "unit": "µg/mL"},
      {"measurement": "MIC", "setting": "E. cloacae 9295", "value": 1, "unit": "µg/mL"},
      {"measurement": "MIC", "setting": "E. cloacae P99", "value": 0.5, "unit": "µg/mL"},
      {"measurement": "MIC", "setting": "E. coli 387-1", "value": 0.5, "unit": "µg/mL"},
      {"measurement": "MIC", "setting": "E. coli 48", "value": 0.25, "unit": "µg/mL"},
      {"measurement": "MIC", "setting": "E. coli 4", "value": 0.5, "unit": "µg/mL"},
      {"measurement": "MIC", "setting": "E. coli 5152", "value": 8, "unit": "µg/mL"},
      {"measurement": "MIC", "setting": "E. coli R-563", "value": 0.5, "unit": "µg/mL"},
      {"measurement": "MIC", "setting": "K. pneumoniae 35", "value": 0.5, "unit": "µg/mL"},
      {"measurement": "MIC", "setting": "K. pneumoniae 4964", "value": 0.5, "unit": "µg/mL"},
      {"measurement": "MIC", "setting": "K. pneumoniae 503-964", "value": 0.5, "unit": "µg/mL"},
      {"measurement": "MIC", "setting": "K. pneumoniae 503-994", "value": 0.25, "unit": "µg/mL"},
      {"measurement": "MIC", "setting": "K. pneumoniae 5096", "value": 16, "unit": "µg/mL"},
      {"measurement": "MIC", "setting": "K. pneumoniae A", "value": 0.25, "unit": "µg/mL"},
      {"measurement": "MIC", "setting": "K. pneumoniae HE7", "value": 64, "unit": "µg/mL"},
      {"measurement": "MIC", "setting": "P. aeruginosa 503-56", "value": "> 128", "unit": "µg/mL"},
      {"measurement": "MIC", "setting": "P. aeruginosa 503-820", "value": "> 128", "unit": "µg/mL"},
      {"measurement": "MIC", "setting": "P. aeruginosa 5712", "value": "> 128", "unit": "µg/mL"},
      {"measurement": "MIC", "setting": "P. aeruginosa 6148B", "value": "> 128", "unit": "µg/mL"},
      {"measurement": "MIC", "setting": "P. aeruginosa 8710", "value": "> 128", "unit": "µg/mL"},
      {"measurement": "MIC", "setting": "P. aeruginosa 8780", "value": "> 128", "unit": "µg/mL"},
      {"measurement": "MIC", "setting": "P. aeruginosa Stone 130", "value": "> 128", "unit": "µg/mL"},
      {"measurement": "MIC", "setting": "P. mirabilis 2", "value": 4, "unit": "µg/mL"},
      {"measurement": "MIC", "setting": "P. mirabilis 503-1136", "value": 8, "unit": "µg/mL"},
      {"measurement": "MIC", "setting": "P. mirabilis 620A", "value": 16, "unit": "µg/mL"},
      {"measurement": "MIC", "setting": "P. rettgeri ATCC 9250", "value": 2, "unit": "µg/mL"},
      {"measurement": "MIC", "setting": "P. vulgaris 100", "value": 16, "unit": "µg/mL"},
      {"measurement": "MIC", "setting": "P. vulgaris 101", "value": 16, "unit": "µg/mL"},
      {"measurement": "MIC", "setting": "P. vulgaris ATCC 6380", "value": 0.5, "unit": "µg/mL"},
      {"measurement": "MIC", "setting": "S. aureus Smith", "value": 8, "unit": "µg/mL"},
      {"measurement": "MIC", "setting": "S. marcescens 5805", "value": 8, "unit": "µg/mL"},
      {"measurement": "MIC", "setting": "S. marcescens S147", "value": 2, "unit": "µg/mL"},
      {"measurement": "MIC", "setting": "S. marcescens S1", "value": 2, "unit": "µg/mL"},
      {"measurement": "MIC", "setting": "S. marcescens S4", "value": 8, "unit": "µg/mL"},
      {"measurement": "MIC", "setting": "S. marcescens S714", "value": 8, "unit": "µg/mL"},
      {"measurement": "MIC", "setting": "S. marcescens SM", "value": 2, "unit": "µg/mL"},
      {"measurement": "MIC", "setting": "S. pneumoniae 6302", "value": 1, "unit": "µg/mL"},
      {"measurement": "MIC", "setting": "S. pneumoniae SC", "value": 1, "unit": "µg/mL"},
      {"measurement": "MIC", "setting": "S. pyogenes 4", "value": 0.5, "unit": "µg/mL"},
      {"measurement": "MIC", "setting": "S. pyogenes 503-782", "value": 128, "unit": "µg/mL"},
      {"measurement": "MIC", "setting": "S. schottmuelleri", "value": 0.5, "unit": "µg/mL"},
      {"measurement": "MIC", "setting": "S. typhi P58A", "value": 0.5, "unit": "µg/mL"}
    ]}
  ]
}
